Experimental data taken from US9562057B2, “(Thieno[2,3-b][1,5]benzoxazepin-4-yl)piperazin-1-yl compounds as dual activity H1 inverse agonists/5-HT2A antagonists” (Eli Lilly and Company, priority 2013, dated 2017).
Structures can show the parent of a compound that is named as a salt.

Key:
[1] = target: T1, 5-HT2B (Homo sapiens, UniProt P41595); experiment: 5-HT2B antagonist functional activity; assay type: biochemical; conditions: antagonist mode
Excerpt: (§1) Further, the compounds of the invention may be tested in binding assays and functional activity assays by well known methods for other physiologically important receptors such as, but not limited to, the hERG channel, other serotonin receptors (specifically 5-HT1B and 5-HT1D receptors, lack of agonist activity at 5-HT2B receptors, 5-HT2C, 5-HT5, 5-HT6, and 5-HT7 receptors), dopaminergic receptors (specifically D1, D2, and D3), GABAA receptors, adrenergic receptors and monoamine transporters.

[2] = target: 5-HT6 (Homo sapiens, UniProt P50406); experiment: 5-HT6 binding
Excerpt: as §1

[3] = target: 5-HT7 (Homo sapiens, UniProt P34969); experiment: 5-HT7 binding
Excerpt: as §1

[4] = target: Dopamine Transporter (Homo sapiens, UniProt Q01959); experiment: Dopamine transporter binding
Excerpt: as §1

[5] = target: T2, 5-HT2A receptor (Mus musculus, UniProt P35363); experiment: Inhibition of DOI induced headshake activity; assay type: in vivo; conditions: male C57BL/6J mice, 10 mg/kg PO, 3 mg/kg DOI, 60 min. pre-treatment
T2 construct: The in vivo 5-HT2A receptor antagonist activity; from tissue; host or cells: living C57BL/6J mice
Procedure: (see for example Bartoszyk G D, van Amsterdam C, Böttcher H, Seyfried C A. EMD 281014, a new selective serotonin 5-HT2A receptor antagonist. Eur J Pharmacol. 2003 473: 229-230.) Briefly, male C57BL/6J mice (20-25 g, Charles River) are housed in standard housing conditions ([…], 07.00 to 19.00 light phase, constant temperature (19-23° C.) and humidity (50%+/−10), ad lib food and water). Mice received either vehicle (0.25% Methyl cellulose), DOI (3 mg/kg in saline) or test compound at 10 mg/kg PO plus DOI (3 mg/kg in saline). Test compounds are individually evaluated in groups of four per experiment with n=4 for each compound, together with vehicle and DOI+vehicle (n=8). After a test compound pre-treatment time of 60 min. the mice receive either vehicle (saline) or 3 mg/kg DOI dosed subcutaneously, and are then placed into clear perspex observation chambers. […] The data is analyzed using an ANOVA and post-hoc Dunnet's Test. The compound of example 2 is tested essentially as described and is found to inhibit the DOI induced headshake response produced by 3 mg/kg DOI by 100% at 10 mg/kg.

[6] = target: T3, 5-HT2A Receptor (Rattus norvegicus, UniProt P14842); experiment: 5-HT2A receptor occupancy in vivo (MDL 100907 tracer); conditions: male Sprague-Dawley rats, oral gavage, 1 hr. before tracer, absolute ED50
T3 construct: samples of the frontal cortex and cerebellum are removed; from tissue; host or cells: rat brain (frontal cortex versus cerebellum), in vivo
Procedure: Briefly, male Sprague-Dawley rats (Harlan Sprague-Dawley, Indianapolis, Ind.) weighing approximately 230-280 grams are given ad lib access to food and water until the beginning of the 3-hr. experimental protocol. 1 mg/kg ketanserin (non-selective 5-HT2A antagonist) is used as a positive control to establish assay validity. Test compounds or control are administered by oral gavage in a vehicle comprised of 20% hydroxypropyl beta-cyclodextrin. MDL 100907 ((R)-(+)-α-(2,3-Dimethoxyphenyl)-1-[2-(4-fluorophenyl)ethyl]-4-piperidinemethanol), a selective 5-HT2A antagonist, is used as a tracer. […] It is at the time of tracer administration that RO is considered to be measured. […] The level of MDL 100907 tracer is measured in each cortical and cerebellar sample. RO is calculated using the well-established ratio method which employs a region of high receptor density representative of total binding (frontal cortex) normalized by an area without or with very low levels of receptor (cerebellum). […]
Cortex and cerebellar samples are weighed and placed in conical centrifuge tubes on ice. […] Standards are prepared by adding known quantities of analyte to brain tissue samples from non-treated rats and processing as described above. […]

[7] = target: T1, 5-HT2B; experiment: 5-HT2B binding
Excerpt: as §1

[8] = target: T1, 5-HT2B; experiment: 5-HT2B agonist functional activity; assay type: biochemical; conditions: agonist mode
Excerpt: as §1

[9] = target: Adrenergic alpha2B (Homo sapiens, UniProt P18089); experiment: Adrenergic alpha2B binding
Excerpt: as §1

[10] = target: Adrenergic alpha1B (Homo sapiens, UniProt P35368); experiment: Adrenergic alpha1B binding
Excerpt: as §1

T1 sequence (P41595 whole entry, species assumed): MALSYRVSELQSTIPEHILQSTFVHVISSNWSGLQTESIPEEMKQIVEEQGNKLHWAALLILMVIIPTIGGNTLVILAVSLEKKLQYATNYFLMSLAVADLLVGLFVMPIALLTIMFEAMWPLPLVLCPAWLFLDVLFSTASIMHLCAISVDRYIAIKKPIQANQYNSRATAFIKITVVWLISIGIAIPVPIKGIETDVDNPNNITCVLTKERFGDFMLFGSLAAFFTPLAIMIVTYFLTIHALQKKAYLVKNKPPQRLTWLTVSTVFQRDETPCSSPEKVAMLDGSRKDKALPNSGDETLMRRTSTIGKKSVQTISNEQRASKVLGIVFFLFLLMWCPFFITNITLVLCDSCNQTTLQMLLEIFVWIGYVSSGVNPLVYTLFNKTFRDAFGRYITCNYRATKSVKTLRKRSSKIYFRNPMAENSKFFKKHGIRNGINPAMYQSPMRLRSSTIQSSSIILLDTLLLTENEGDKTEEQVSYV
Sequence of Adrenergic alpha2B (P18089 whole entry): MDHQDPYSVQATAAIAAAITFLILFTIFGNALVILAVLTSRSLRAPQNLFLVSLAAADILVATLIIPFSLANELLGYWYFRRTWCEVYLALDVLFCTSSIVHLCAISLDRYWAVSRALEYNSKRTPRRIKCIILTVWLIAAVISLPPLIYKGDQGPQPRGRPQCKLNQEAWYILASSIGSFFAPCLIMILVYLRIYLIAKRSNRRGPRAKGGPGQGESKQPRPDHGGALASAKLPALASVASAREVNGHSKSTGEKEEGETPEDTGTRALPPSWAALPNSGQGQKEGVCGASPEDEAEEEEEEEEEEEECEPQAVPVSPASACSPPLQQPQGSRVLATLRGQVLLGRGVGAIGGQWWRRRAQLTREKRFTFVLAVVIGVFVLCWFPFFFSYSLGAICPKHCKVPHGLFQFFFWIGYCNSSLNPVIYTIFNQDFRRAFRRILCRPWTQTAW
Sequence of Adrenergic alpha1B (P35368 whole entry): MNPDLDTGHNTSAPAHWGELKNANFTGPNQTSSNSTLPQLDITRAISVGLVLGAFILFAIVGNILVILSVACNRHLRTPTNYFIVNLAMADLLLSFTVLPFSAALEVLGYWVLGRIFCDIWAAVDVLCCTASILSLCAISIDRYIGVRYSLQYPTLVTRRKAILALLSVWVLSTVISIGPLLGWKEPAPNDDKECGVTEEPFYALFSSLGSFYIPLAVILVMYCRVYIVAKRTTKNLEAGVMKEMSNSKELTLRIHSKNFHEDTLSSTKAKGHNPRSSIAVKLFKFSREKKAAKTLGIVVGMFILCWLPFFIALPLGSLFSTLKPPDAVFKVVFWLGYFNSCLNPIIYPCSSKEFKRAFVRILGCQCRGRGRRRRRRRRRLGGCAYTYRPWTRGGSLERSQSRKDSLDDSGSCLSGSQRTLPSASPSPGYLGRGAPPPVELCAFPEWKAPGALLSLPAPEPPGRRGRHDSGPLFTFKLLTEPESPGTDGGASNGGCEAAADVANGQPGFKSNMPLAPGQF
Sequence of 5-HT6 (P50406 whole entry, species assumed): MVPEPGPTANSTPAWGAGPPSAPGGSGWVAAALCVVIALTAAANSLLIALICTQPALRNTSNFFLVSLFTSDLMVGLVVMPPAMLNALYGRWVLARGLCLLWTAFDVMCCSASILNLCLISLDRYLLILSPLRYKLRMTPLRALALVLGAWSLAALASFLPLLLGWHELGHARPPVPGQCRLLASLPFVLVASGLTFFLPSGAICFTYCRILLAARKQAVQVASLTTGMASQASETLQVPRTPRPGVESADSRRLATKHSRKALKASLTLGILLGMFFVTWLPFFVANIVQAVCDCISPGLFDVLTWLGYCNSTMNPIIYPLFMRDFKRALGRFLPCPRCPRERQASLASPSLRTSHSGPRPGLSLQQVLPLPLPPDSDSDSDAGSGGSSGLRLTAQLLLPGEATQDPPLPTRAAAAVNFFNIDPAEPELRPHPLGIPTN
Sequence of Dopamine Transporter (Q01959 whole entry): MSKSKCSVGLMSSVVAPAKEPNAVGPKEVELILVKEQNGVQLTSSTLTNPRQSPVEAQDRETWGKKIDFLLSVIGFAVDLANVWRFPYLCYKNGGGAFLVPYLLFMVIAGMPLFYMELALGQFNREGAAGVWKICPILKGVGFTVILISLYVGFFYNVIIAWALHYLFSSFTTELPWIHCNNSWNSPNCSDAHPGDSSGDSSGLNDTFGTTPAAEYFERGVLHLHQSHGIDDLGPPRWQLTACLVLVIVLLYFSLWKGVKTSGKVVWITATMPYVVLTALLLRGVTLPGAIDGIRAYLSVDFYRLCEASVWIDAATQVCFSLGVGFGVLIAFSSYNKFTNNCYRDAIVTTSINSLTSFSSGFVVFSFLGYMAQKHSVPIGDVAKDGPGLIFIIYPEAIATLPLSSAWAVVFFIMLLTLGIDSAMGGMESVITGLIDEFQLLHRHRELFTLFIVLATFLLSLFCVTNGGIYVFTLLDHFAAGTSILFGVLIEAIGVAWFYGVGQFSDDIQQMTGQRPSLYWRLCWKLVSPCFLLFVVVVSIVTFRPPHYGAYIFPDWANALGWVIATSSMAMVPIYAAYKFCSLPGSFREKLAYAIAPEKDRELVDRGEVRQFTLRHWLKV
T2 sequence (P35363 whole entry): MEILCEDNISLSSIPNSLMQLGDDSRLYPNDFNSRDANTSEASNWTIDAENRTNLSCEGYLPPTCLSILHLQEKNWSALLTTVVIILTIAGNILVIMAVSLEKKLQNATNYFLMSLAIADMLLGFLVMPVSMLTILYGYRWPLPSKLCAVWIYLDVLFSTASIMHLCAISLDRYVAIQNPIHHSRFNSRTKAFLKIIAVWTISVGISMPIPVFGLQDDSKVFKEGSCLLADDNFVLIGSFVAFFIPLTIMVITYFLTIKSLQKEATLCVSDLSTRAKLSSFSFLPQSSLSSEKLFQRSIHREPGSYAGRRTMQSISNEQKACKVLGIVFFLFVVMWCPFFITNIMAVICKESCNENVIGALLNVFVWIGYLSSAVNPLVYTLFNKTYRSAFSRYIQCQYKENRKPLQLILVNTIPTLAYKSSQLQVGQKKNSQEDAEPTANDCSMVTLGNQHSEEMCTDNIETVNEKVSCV
T3 sequence (P14842 whole entry): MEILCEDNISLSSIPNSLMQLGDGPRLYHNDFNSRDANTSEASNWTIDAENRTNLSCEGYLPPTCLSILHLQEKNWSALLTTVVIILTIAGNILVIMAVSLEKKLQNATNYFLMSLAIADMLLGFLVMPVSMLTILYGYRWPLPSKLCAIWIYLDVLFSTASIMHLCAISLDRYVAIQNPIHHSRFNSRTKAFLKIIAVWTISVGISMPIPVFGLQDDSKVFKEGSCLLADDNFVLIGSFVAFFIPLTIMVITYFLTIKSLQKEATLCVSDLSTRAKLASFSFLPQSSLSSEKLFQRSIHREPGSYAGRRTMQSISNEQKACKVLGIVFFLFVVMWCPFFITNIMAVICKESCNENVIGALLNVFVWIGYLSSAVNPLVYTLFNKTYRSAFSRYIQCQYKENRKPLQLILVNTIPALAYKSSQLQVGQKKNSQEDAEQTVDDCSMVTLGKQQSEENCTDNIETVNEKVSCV
Sequence of 5-HT7 (P34969 whole entry, species assumed): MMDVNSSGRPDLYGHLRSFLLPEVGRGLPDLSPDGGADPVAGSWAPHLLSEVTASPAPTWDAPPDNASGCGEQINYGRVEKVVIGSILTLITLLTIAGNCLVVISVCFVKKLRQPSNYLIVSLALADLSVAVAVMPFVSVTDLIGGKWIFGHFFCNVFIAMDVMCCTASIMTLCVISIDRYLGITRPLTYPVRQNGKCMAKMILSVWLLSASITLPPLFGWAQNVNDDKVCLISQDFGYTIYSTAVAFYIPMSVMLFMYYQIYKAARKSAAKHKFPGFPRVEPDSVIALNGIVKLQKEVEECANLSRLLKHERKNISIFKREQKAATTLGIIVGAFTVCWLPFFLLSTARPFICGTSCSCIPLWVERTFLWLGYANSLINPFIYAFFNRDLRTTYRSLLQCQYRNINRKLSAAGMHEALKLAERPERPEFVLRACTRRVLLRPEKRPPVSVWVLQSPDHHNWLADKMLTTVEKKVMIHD

## Cc1ccc2c(c1)Oc1sc(C3CC3)cc1C(N1CCN(CC(C)(C)C(=O)O)CC1)=N2 [Example 2, 3-[4-(2-Cyclopropyl-8-methyl-thieno[2,3-b][1,5]benzoxazepin-4-yl)piperazin-1-yl]-2,2-dimethyl-propanoic acid dihydrochloride]
[1]
  Kb: 93.4 nM
[2]
  Ki: > 5830 nM
[3]
  Ki: > 2060 nM
[4]
  Ki: > 867 nM
[5]
  inhibition of DOI induced headshake response: 100%
[6]
  ED50: 0.41 mg/kg
[7]
  Ki: 118 nM
[8]
  EC50: > 10000 nM
[9]
  Ki: 1060 nM
[10]
  Ki: > 15500 nM
